Consider 3 molecules from patent US20120077876A1, “Method For Improved Bioactivation Of Pharmaceuticals” (Dritte Patentportfolio Beteiligungsgesellschaft Mbh & Co. KG, priority 2009, published 2012).

What is called Km is the concentration of substrate that gives half-maximal velocity.

Series [1] has as its system cytochrome P450 (CYP450). The series can be described thus: CYP450 substrate study, human liver microsomes and 9000 g supernatant. Format: in vitro ADME. The settings on record: human liver enzyme sources, pH 6.0 and pH 7.4, NADH or NADPH, 60 or 180 minutes. Here is the method: To obtain human microsomes, human liver tissue from cancer patients of the surgical department of the University Clinic of Christian-Albrecht University was obtained who had to undergo hemihepatectomy.
The liver tissue pieces were flash-frozen in a saccharose-containing phosphate buffer (10 mM K2HPO4, 10 mM KH2PO4, 250 mM saccharose, 1 mM Na2 EDTA, pH 7.4, 4° C.). As soon as a sufficient quantity of organ parts (>3) was available, the corresponding pieces were thawed and pooled so as to compensate for differences due to interindividual variations. The tissue pieces were cut into smaller parts at 4° C., washed several times with buffer solution (without EDTA), and processed into a suspension using a homogenizer. The microsomes and 9000 g supernatant were further obtained from this suspension by differential ultracentrifugation. For storage, the resulting preparations were aliquotted and frozen at −80° C.
A typical incubation bath of 500 μl (total volume) contained 0.3 mg protein (pork or human liver enzyme source), 0.1 mM (or 1 mM) test compound in 100 mM phosphate buffer (pH 6.0 or pH 7.4) and 1 mM NADH (or NADPH). The incubation was started after a 5-minute pre-incubation of the enzyme and test compound in buffer, adding NADH (or NADPH), and the product was shaken for 60 minutes or 180 minutes at 37° C. in the shaking water batch. […]
A general note: Microsomes from liver hold many membrane-bound enzymes, among them those of drug oxidation.

The subject of series [2] is cytochrome P450 (CYP450). The series can be described thus: CYP450 substrate study, porcine liver microsomes and 9000 g supernatant. In kind it is in vitro ADME. Particulars: pork liver enzyme sources, pH 6.0 and pH 7.4, NADH or NADPH, 60 or 180 minutes. On the procedure:
The pork livers were procured from a local butcher (Bordesholm) and the organs were transported directly after slaughter in an ice-cooled 20 mM phosphate buffer (1 mM Na2 EDTA, pH 7.4). For further processing, the liver lobes were first perfused with 50 mM phosphate buffer (1 mM Na2 EDTA, pH 7.4) and washed. The tissue was cut into pieces and run through a commercially available meat grinder. The suspension was diluted an equal volume of phosphate buffer and homogenized using a flow homogenizer. The microsomes and 9000 g supernatant were further obtained by differential ultracentrifugation. For storage, the resulting preparations were aliquotted and frozen at −80° C.
A typical incubation bath of 500 μl (total volume) contained 0.3 mg protein (pork or human liver enzyme source), 0.1 mM (or 1 mM) test compound in 100 mM phosphate buffer (pH 6.0 or pH 7.4) and 1 mM NADH (or NADPH). The incubation was started after a 5-minute pre-incubation of the enzyme and test compound in buffer, adding NADH (or NADPH), and the product was shaken for 60 minutes or 180 minutes at 37° C. in the shaking water batch. The batches were stopped by adding the same volume of acetonitrile, shaken using the vortexer, and frozen at −80° C.
To analyze the samples, they were thawed, shaken 5 minutes using the vortexer, and the protein was separated by means of 5-minute centrifugation at 10000 rpm. […]

Series [3] addresses T1, peptidylglycine α-amidating monooxygenase (PAM) (Rattus norvegicus, UniProt P14925).
T1 construct: purchased Unigene Laboratories, Inc. (New Jersey, USA)
T1 sequence (P14925 36-871 isoform P14925-2 limits assumed): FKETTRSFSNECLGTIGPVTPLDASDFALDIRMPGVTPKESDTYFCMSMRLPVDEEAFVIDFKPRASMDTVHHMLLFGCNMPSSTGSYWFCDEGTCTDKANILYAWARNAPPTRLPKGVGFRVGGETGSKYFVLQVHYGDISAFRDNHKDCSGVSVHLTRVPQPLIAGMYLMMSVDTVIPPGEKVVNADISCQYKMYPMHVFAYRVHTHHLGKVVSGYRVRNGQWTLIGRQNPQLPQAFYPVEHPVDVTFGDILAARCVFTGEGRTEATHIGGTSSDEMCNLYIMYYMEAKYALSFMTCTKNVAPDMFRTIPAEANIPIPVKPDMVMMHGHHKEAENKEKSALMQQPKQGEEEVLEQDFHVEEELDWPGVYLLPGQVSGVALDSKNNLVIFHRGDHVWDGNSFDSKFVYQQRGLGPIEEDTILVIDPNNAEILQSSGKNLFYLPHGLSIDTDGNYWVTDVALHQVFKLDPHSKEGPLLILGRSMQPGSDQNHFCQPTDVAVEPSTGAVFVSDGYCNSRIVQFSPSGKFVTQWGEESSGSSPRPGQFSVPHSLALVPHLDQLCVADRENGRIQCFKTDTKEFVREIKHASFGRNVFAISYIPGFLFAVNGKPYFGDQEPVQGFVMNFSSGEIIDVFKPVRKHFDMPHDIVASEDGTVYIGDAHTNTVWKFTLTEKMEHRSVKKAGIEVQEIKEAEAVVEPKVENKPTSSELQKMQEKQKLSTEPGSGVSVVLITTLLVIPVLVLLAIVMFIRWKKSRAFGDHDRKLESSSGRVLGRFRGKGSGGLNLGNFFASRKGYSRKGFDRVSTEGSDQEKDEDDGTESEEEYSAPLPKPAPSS
The series can be described thus: PAM assay with colorimetric determination of glyoxylate formation. In kind it is biochemical. The settings on record: for formation of glyoxylate as the cleavage product of the PAM catalysis: colorimetric assay, substrate 0.1 mM or 1 mM, pH 6.0 and pH 7.4, 37° C. On the procedure: (§1) The recombinant peptidylglycine α-amidating monooxygenase (PAM, rat, EC 1.14.17.3) that was used was provided by Unigene Laboratories, Inc. (New jersey, USA) (specific activity=5.8 10^6 U/mg protein); bovine liver catalase (EC 1.11.1.6), specific activity=12600 U/mg solid (Aldrich).
(§2) A typical incubation batch of 300 μl (total volume) contained 25000 U/ml peptidylglycine α-amidating monooxygenase (PAM, company: Unigene Laboratories), 250 U/ml catalase, 1 μM copper(II) (employed as acetate/monohydrate), 2 mM sodium ascorbate, 5 mM potassium iodide and the respective substrate in 0.1 mM or 1 mM concentration, in buffers having different pH values. The buffer system used was 30 mM MES for the incubation at pH 6.0 and 50 mM HEPES for the incubation at pH 7.4. The pH value was adjusted in each case with diluted sodium hydroxide. The incubation was carried out at 37° C. in the shaking water bath for 60 minutes, 100 μl was withdrawn, and the reaction was stopped with 50 μl 10% TFA(aq)/acetonitrile (2:3). The remaining batch was incubated for another 180 minutes at 37° C. and stopped with 100 μl 10% TFA(aq)/acetonitrile (2:3).
(§3) The stopped samples were shaken for 5 minutes (vortexer) and frozen at −80° C. To analyze the samples, they were thawed, shaken for 5 minutes, and the precipitated protein was centrifuged at 10000 rpm. The supernatant was used for the colorimetric glyoxylate determination and/or HPLC measurement.
200 μl of the incubation batch that was freed of protein was mixed with 20 μl of a phenylhydrazine solution (20 mg in 2 ml aqua bidest.) and shaken for 5 minutes in the shaking water bath at 37° C. […] The batch was allowed to rest for 15 minutes at room temperature and 200 μl was withdrawn for the measurement using a Plate Reader (Cary 50 UV-Vis photometer, 520 nm).
For a 5-point calibration, glyoxalic acid in concentrations of 2, 5, 10, 50 and 100 μM in a 2:1 mixture of assay buffer (pH 6.0):10% TFA(aq)/acetonitrile (2:3) was measured as described above. […]

Series [4] addresses T1, peptidylglycine α-amidating monooxygenase (PAM). The series can be described thus: PAM substrate kinetics (KM and Vmax) by HPLC. In kind it is biochemical. Particulars: for Vmax value: pH 6.0, 30 minutes incubation, n=2. Here is the method: as §1
as §2, with “The incubation was carried out at 37° C. in the shaking water bath for 60 minutes, 100 μl was withdrawn, and the reaction was stopped with 50 μl 10% TFA(aq)/acetonitrile (2:3).” left out
as §3
For the KM and Vmax determination, 100 μl batches were treated at pH 6.0 under the aforementioned conditions, however with the difference that the incubation time was 30 minutes.
HPLC Analysis for Separating O-carboxymethyl benzamidoxime (1) and benzamidoxime (2)
(§4) For the calibration, benzamidoxime was dissolved in eight concentrations of 0.1-500 μM, dissolved in assay buffer (30 mM MES, 1 μM copper(II) acetate, 2 mM sodium ascorbate, 5 mM potassium iodide, pH 6.0), and measured using the aforementioned HPLC method. […]
(§5) For the calibration, N-hydroxy-N′,N″-diphenyl guanidine (4) was dissolved in eight concentrations of 0.1-500 μM, dissolved in assay buffer (30 mM MES, […], 2 mM sodium ascorbate, 5 mM potassium iodide, pH 6.0), and measured using the aforementioned HPLC method.

Substrate in series [5]: N/C(=N\OCC(=O)O)c1ccccc1
The series can be described thus: PAM substrate kinetics (KM and Vmax) by HPLC. Format: biochemical, rat. The settings on record: other: pH 6.0, 30 minutes incubation, two independent experiments (n=2), 37.0 °C. Here is the method: as §1
(§6) A typical incubation batch of 300 μl (total volume) contained 25000 U/ml peptidylglycine α-amidating monooxygenase (PAM, company: Unigene Laboratories), 250 U/ml catalase, 1 μM copper(II) (employed as acetate/monohydrate), 2 mM sodium ascorbate, 5 mM potassium iodide and the respective substrate in 0.1 mM or 1 mM concentration, in buffers having different pH values. The buffer system used was 30 mM MES for the incubation at pH 6.0 and 50 mM HEPES for the incubation at pH 7.4. The pH value was adjusted in each case with diluted sodium hydroxide. […]
as §4, §5

Substrate in series [6]: O=C(O)CON=C(Nc1ccccc1)Nc1ccccc1
As to the kind of experiment: PAM substrate kinetics (KM and Vmax) by HPLC. In kind it is biochemical, rat. The settings on record: other: pH 6.0, 30 minutes incubation, two independent experiments (n=2), 37.0 °C. Here is the method:
as §1, §6, §4, §5

On to `N/C(=N\OCC(=O)O)c1ccccc1` [compound 1, O-carboxymethyl benzamidoxime], for which the “detection of O-dealkylated metabolite and its N-reduction product by HPLC” value in series [1] and in series [2] was “neither benzamidoxime possible prodrug of benzamidine) nor benzamidine were detected” each time. For the same molecule, in series [3], the “formation of glyoxylate as the cleavage product of the PAM catalysis” value was “verified in an concentration-dependent manner”. In addition, the “conversion at the pH optimum of PAM (pH 6.0) in comparison with incubation at pH 7.4” value in series [3] (colorimetric glyoxylate determination, FIG. 1) is given as “considerably higher conversions”. Further, the Vmax value in series [4] is recorded as 393±40 nmol min^−1 mg^−1 PAM.

For `O=C(O)CON=C(Nc1ccccc1)Nc1ccccc1` [compound 3, N-carboxymethoxy-N′,N″-diphenyl guanidine], the “formation of glyoxylate as the cleavage product of the PAM catalysis” value in series [3] is reported as “comparable to those of the amidoxime model compound 1”. Further, the “conversion rate in comparison with the amidoxime prodrug 1” value in series [4] (comparison of Vmax) is on record as “comparable”. For the same molecule, the Vmax value in series [4] was found to be 373 ± 53 nmol min⁻¹ mg⁻¹ PAM.

B1: peptidylglycine α-amidating monooxygenase (PAM) (Rattus norvegicus) (protein)
chain: FKETTRSFSNECLGTIGPVTPLDASDFALDIRMPGVTPKESDTYFCMSMRLPVDEEAFVIDFKPRASMDTVHHMLLFGCNMPSSTGSYWFCDEGTCTDKANILYAWARNAPPTRLPKGVGFRVGGETGSKYFVLQVHYGDISAFRDNHKDCSGVSVHLTRVPQPLIAGMYLMMSVDTVIPPGEKVVNADISCQYKMYPMHVFAYRVHTHHLGKVVSGYRVRNGQWTLIGRQNPQLPQAFYPVEHPVDVTFGDILAARCVFTGEGRTEATHIGGTSSDEMCNLYIMYYMEAKYALSFMTCTKNVAPDMFRTIPAEANIPIPVKPDMVMMHGHHKEAENKEKSALMQQPKQGEEEVLEQDFHVEEELDWPGVYLLPGQVSGVALDSKNNLVIFHRGDHVWDGNSFDSKFVYQQRGLGPIEEDTILVIDPNNAEILQSSGKNLFYLPHGLSIDTDGNYWVTDVALHQVFKLDPHSKEGPLLILGRSMQPGSDQNHFCQPTDVAVEPSTGAVFVSDGYCNSRIVQFSPSGKFVTQWGEESSGSSPRPGQFSVPHSLALVPHLDQLCVADRENGRIQCFKTDTKEFVREIKHASFGRNVFAISYIPGFLFAVNGKPYFGDQEPVQGFVMNFSSGEIIDVFKPVRKHFDMPHDIVASEDGTVYIGDAHTNTVWKFTLTEKMEHRSVKKAGIEVQEIKEAEAVVEPKVENKPTSSELQKMQEKQKLSTEPGSGVSVVLITTLLVIPVLVLLAIVMFIRWKKSRAFGDHDRKLESSSGRVLGRFRGKGSGGLNLGNFFASRKGYSRKGFDRVSTEGSDQEKDEDDGTESEEEYSAPLPKPAPSS
notes: purchased Unigene Laboratories, Inc. (New Jersey, USA)
Take B1: the Km stood at 307 ± 80 µM in series [5] and 37 ± 5 µM in series [6].
